For data set [1] the following is noted: literature values [11-13]; cited from earlier work.
The target in another data set is insulin (Homo sapiens, UniProt P01308). Put plainly: Inhibition of peptide and protein aggregation (insulin precipitation). It is filed as physicochemical. The conditions noted are these: insulin 0.4 mg/ml, surfactant 1.4 mg/ml, pH 6.8 or 7.4, 25 and 40° C., 2-12 weeks. From the text:
Inhibition of peptide and protein aggregation is crucial for the physical stability and safety, particularly for pharmaceutics for injection (injectabilia). Therefore, surfactants are normally applied as inhibitors of peptide and protein aggregation in such formulations. The ability, of a C16G8/14 mixture to inhibit peptide and protein aggregation in solution was investigated using insulin as model peptide.

SMILES strings stand for the structures.

Chain of insulin (P01308 25-54 limits assumed, species assumed): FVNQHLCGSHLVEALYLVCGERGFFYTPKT
Chain of insulin (P01308 90-110 limits assumed, species assumed): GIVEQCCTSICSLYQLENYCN

Turning to `CCCCCCCCCCCCO[C@@H]1O[C@H](CO)[C@@H](O)[C@H](O)[C@H]1O` [C12G1], the Krafft point in data set [1] is 38 °C.

As to `CCCCCCCCCCCCCCO[C@@H]1O[C@H](CO)[C@@H](O[C@@H]2O[C@@H](CO)[C@H](O)[C@@H](O)[C@@H]2O)[C@H](O)[C@H]1O` (stereo in doubt) [C14G2, tetradecylmaltoside], the “Inhibition of insulin precipitation (visual inspection)” value at insulin is “unable to inhibit precipitation, even under non-accelerated conditions”. Moreover, in data set [1], the Krafft point is 32 °C.

The record behind these values is US10857232B2, “Surfactant composition” (Enza Biotech AB, priority 2013, dated 2020).
